Assay results: patent US7148236B2, “Modulators of acetylcholine receptors” (Merck & Co., Inc., priority 2002, dated 2006)

| SMILES | melting point [°C] |
| --- | --- |
| CN1[C@@H]2CC[C@H]1C[C@H](Sc1cc3c(cc1Cl)[nH]c(=O)n3C)C2 | 206.4 to 207.2 |
| CN1[C@@H]2CC[C@H]1C[C@H](Sc1ccc3[nH]c(=O)[nH]c(=O)c3c1)C2 | > 260 |
| CN1[C@@H]2CC[C@H]1C[C@H](Sc1ccc3[nH]c(=O)[nH]c3c1)C2 | 178.5 to 181.6 |

Next, values leading:

| melting point [°C] | SMILES |
| --- | --- |
| > 260 | CN1[C@@H]2CC[C@H]1C[C@H](Sc1ccc3[nH]c(=O)n(C)c3c1Cl)C2.Cl |
| 131.4 to 133.9 | CCCn1c(=S)[nH]c2ccc(S[C@@H]3C[C@H]4CC[C@@H](C3)N4C)c(Cl)c21 |
| 228.9 to 230.9 | CC(C)n1c(=S)[nH]c2ccc(S[C@@H]3C[C@H]4CC[C@@H](C3)N4C)c(Cl)c21 |
